Source: patent US9850283B2, “Macrocyclic inhibitors of the PD-1/PD-L1 and CD80(B7-1)/PD-L1 protein/protein interactions” (BRISTOL-MYERS SQUIBB COMPANY, priority 2013, dated 2017)
Starred links: 1 amine or outer side, 2 acyl side, 3 side chain; linkers in the order of their positions; H or OH if unused. Positions of bridges follow the written chain, without caps; N, C: chain ends. Non-standard residues stand in square brackets, D forms with d. Residues, ends and D or L forms follow the SMILES beside them. *: point of attachment. Phe(3,4,5-F3) = N[C@@H](Cc1cc(F)c(F)c(F)c1)C(=O)O; NMe2Nal = CN[C@@H](Cc1ccc2ccccc2c1)C(=O)O; Dopa = N[C@@H](Cc1ccc(O)c(O)c1)C(=O)O; d(cisHyp) = O=C(O)[C@H]1C[C@@H](O)CN1; NMeF = CN[C@@H](Cc1ccccc1)C(=O)O; X4 = O=C([C@H]1COCCN1[*:1])[*:2]; 3Pal = N[C@@H](Cc1cccnc1)C(=O)O; dHyp = O=C(O)[C@H]1C[C@H](O)CN1; NMeNle = CCCC[C@H](NC)C(=O)O; Orn = NCCC[C@H](N)C(=O)O; OtBu = CC(C)(C)O*; Sar = CNCC(=O)O

Assays:
[1] = target: T1, LK35.2-hPD-L1 cells / PE-labeled PD-1-Ig (Homo sapiens, UniProt Q9NZQ7); assay: LK35.2-hPD-L1 cell binding high-content screening assay; format: cell-based; details: cell binding assay, cell line not given; cluster symbol; read-out: CBA IC50 cluster
T1 construct: expressed in transfected cells; host or cells: LK35.2 mouse B cell line
Outline: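 Binding of PE-conjugated human PD-1-Ig (1 nM final) to human PD-L1 stably expressed on a mouse B-cell line (LK35.2) was measured by high-content imaging after washes. Compound and labeled PD-1-Ig were co-incubated 1 h at 37 °C with cells in RPMI/10% FCS.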

Human PD-L1/PD-1 = target: T2, Human PD-L1/PD-1 (Homo sapiens, UniProt Q9NZQ7); assay: HTRF PD-1-Ig/PD-L1-His binding assay (human PD-L1); details: cluster symbol; read-out: HTRF IC50 cluster
T2 construct: made in house; host or cells: HEK293T
Outline: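 Steps: truncated PD-1-Ig and PD-L1-His fusions are incubated in dPBS containing 0.1% (w/v) BSA and 0.05% (v/v) Tween-20. Detection antibodies are then added (Eu cryptate anti-Ig at 1 nM final, APC anti-His at 20 nM final), and time-resolved FRET is measured.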

T2 sequence (Q9NZQ7 with tags, fused parts or gaps): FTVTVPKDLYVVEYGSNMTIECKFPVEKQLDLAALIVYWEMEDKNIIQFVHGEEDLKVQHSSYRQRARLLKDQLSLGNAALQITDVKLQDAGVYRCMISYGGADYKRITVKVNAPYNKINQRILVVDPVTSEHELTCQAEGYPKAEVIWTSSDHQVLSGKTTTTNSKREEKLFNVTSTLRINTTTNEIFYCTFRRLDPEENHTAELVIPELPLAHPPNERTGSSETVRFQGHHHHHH
T1 sequence (Q9NZQ7 19-290): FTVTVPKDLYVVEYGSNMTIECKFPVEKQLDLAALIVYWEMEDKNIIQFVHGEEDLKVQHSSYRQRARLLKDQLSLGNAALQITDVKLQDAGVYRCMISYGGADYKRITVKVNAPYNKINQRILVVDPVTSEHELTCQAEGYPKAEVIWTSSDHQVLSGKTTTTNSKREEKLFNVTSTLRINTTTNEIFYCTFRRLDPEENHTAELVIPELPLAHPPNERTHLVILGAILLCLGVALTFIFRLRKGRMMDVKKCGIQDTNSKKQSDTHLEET

Row | Structure (SMILES) | IC50 [1] | IC50 (Human PD-L1/PD-1)
1 | CCCC[C@H]1C(=O)N(C)CC(=O)N[C@@H](CC(N)=O)C(=O)N[C@@H](C(C)C)C(=O)N(C)[C@@H](Cc2ccccc2)C(=O)N[C@@H](Cc2ccc(O)cc2)C(=O)N(C)CC(=O)N[C@@H](Cc2c[nH]c3ccccc23)C(=O)N[C@@H](Cc2ccc(O)cc2)C(=O)N[C@@H](CCCN)C(=O)N[C@H](C(=O)NCC(N)=O)CSCC(=O)N[C@@H](Cc2ccccc2)C(=O)N(C)[C@@H](Cc2ccc3ccccc3c2)C(=O)N1C [Example 3603] ({CH2CO}-F[NMe2Nal][NMeNle][Sar]NV[NMeF]Y[Sar]WY[Orn]CG-NH2; thioether N-13) | 4.78 to 72.9 nM | 6.76 to 30.3 nM
2 | CCCC[C@H]1C(=O)N(C)CC(=O)N[C@@H](CC(=O)OC(C)(C)C)C(=O)N[C@@H](C(C)C)C(=O)N(C)[C@@H](Cc2ccccc2)C(=O)N[C@@H](Cc2ccc(O)cc2)C(=O)N(C)CC(=O)N[C@@H](Cc2c[nH]c3ccccc23)C(=O)N[C@@H](Cc2ccc(O)cc2)C(=O)N[C@@H](CC(C)C)C(=O)N[C@H](C(=O)NCC(N)=O)CSCC(=O)N[C@@H](Cc2ccccc2)C(=O)N[C@@H](Cc2cccnc2)C(=O)N1C [Example 3604] ({CH2CO}-F[3Pal][NMeNle][Sar]D(OtBu)V[NMeF]Y[Sar]WYLCG-NH2; thioether N-13) | > 74.3 nM | > 30.5 nM
3 | CCCC[C@H]1C(=O)N2C[C@@H](O)C[C@@H]2C(=O)N[C@@H](CC(N)=O)C(=O)N[C@@H](C(C)C)C(=O)N(C)[C@@H](Cc2ccccc2)C(=O)N[C@@H](CCC(N)=O)C(=O)N2CCOC[C@@H]2C(=O)N[C@@H](Cc2c[nH]c3ccccc23)C(=O)N[C@@H](Cc2ccc(O)cc2)C(=O)N[C@@H](CCCN)C(=O)N[C@H](C(=O)NCC(N)=O)CSCC(=O)N[C@@H](Cc2cc(F)c(F)c(F)c2)C(=O)N(C)[C@@H](Cc2ccccc2)C(=O)N1C [Example 3605] ({CH2CO}-[Phe(3,4,5-F3)][NMeF][NMeNle][dHyp]NV[NMeF]Q[X4]WY[Orn]CG-NH2; thioether N-13) | 0.158 to 4.71 nM | 0.385 to 6.74 nM
4 | CCCC[C@H]1C(=O)N2C[C@@H](O)C[C@@H]2C(=O)N[C@@H](CC(N)=O)C(=O)N[C@@H](C(C)C)C(=O)N(C)[C@@H](Cc2ccccc2)C(=O)N[C@@H](Cc2ccc(O)cc2)C(=O)N2CCOC[C@@H]2C(=O)N[C@@H](Cc2c[nH]c3ccccc23)C(=O)N[C@@H](Cc2ccc(O)cc2)C(=O)N[C@@H](CCCN)C(=O)N[C@H](C(=O)NCC(N)=O)CSCC(=O)N[C@@H](Cc2cc(F)c(F)c(F)c2)C(=O)N(C)[C@@H](Cc2ccccc2)C(=O)N1C [Example 3606] ({CH2CO}-[Phe(3,4,5-F3)][NMeF][NMeNle][dHyp]NV[NMeF]Y[X4]WY[Orn]CG-NH2; thioether N-13) | 0.158 to 4.71 nM | 0.385 to 6.74 nM
5 | CCCC[C@H]1C(=O)N2C[C@@H](O)C[C@@H]2C(=O)N[C@@H](CC(N)=O)C(=O)N[C@@H](C(C)C)C(=O)N(C)[C@@H](Cc2ccccc2)C(=O)N[C@@H](CCCN)C(=O)N2CCOC[C@@H]2C(=O)N[C@@H](Cc2c[nH]c3ccccc23)C(=O)N[C@@H](Cc2ccc(O)cc2)C(=O)N[C@@H](CCCN)C(=O)N[C@H](C(=O)NCC(N)=O)CSCC(=O)N[C@@H](Cc2cc(F)c(F)c(F)c2)C(=O)N(C)[C@@H](Cc2ccccc2)C(=O)N1C [Example 3607] ({CH2CO}-[Phe(3,4,5-F3)][NMeF][NMeNle][dHyp]NV[NMeF][Orn][X4]WY[Orn]CG-NH2; thioether N-13) | 0.158 to 4.71 nM | 0.385 to 6.74 nM
6 | CCCC[C@H]1C(=O)N2C[C@H](O)C[C@@H]2C(=O)N[C@@H](CC(N)=O)C(=O)N[C@@H](C(C)C)C(=O)N(C)[C@@H](Cc2ccccc2)C(=O)N[C@@H](CCC(=O)O)C(=O)N2CCOC[C@@H]2C(=O)N[C@@H](Cc2c[nH]c3ccccc23)C(=O)N[C@@H](Cc2ccc(O)cc2)C(=O)N[C@@H](CCCN)C(=O)N[C@H](C(=O)NCC(N)=O)CSCC(=O)N[C@@H](Cc2cc(F)c(F)c(F)c2)C(=O)N(C)[C@@H](Cc2ccccc2)C(=O)N1C [Example 3608] ({CH2CO}-[Phe(3,4,5-F3)][NMeF][NMeNle][d(cisHyp)]NV[NMeF]E[X4]WY[Orn]CG-NH2; thioether N-13) | 0.158 to 4.71 nM | 0.385 to 6.74 nM
7 | CCCC[C@H]1C(=O)N(C)CC(=O)N[C@@H](CC(=O)O)C(=O)N[C@@H](C(C)C)C(=O)N(C)[C@@H](Cc2ccccc2)C(=O)N[C@@H](Cc2ccc(O)cc2)C(=O)N(C)CC(=O)N[C@@H](Cc2c[nH]c3ccccc23)C(=O)N[C@@H](Cc2ccc(O)c(O)c2)C(=O)N[C@@H](CC(C)C)C(=O)N[C@H](C(=O)NCC(N)=O)CSCC(=O)N[C@@H](Cc2cc(F)c(F)c(F)c2)C(=O)N(C)[C@@H](Cc2ccccc2)C(=O)N1C [Example 3609] ({CH2CO}-[Phe(3,4,5-F3)][NMeF][NMeNle][Sar]DV[NMeF]Y[Sar]W[Dopa]LCG-NH2; thioether N-13) | 0.158 to 4.71 nM | 0.385 to 6.74 nM
